Measurements: patent US10987317B2, “Inhibition of glutaminase C” (Cornell University, priority 2009, dated 2021)

Tests used:
[1] = tested on: NIH 3T3 cells stably expressing Cdc42(F28L) and transiently expressing GAC; test: Focus formation by Cdc42(F28L) plus GAC; assay type: cell-based
Excerpt: (§1) FIGS. 4A-E illustrate the role of glutaminase C activity in cellular transformation. […] Data represent the average of 3 experiments (±s.d.). […] Data represent the average of 3 experiments (±s.d.). […] 100% represents the activity measured in untreated Dbl-transformed cells. The data represent the average of 2 experiments. […] 100% represents the activity measured in untreated SKBR3 cells. The data represent the average of 2 experiments. […] Data represent the average of 3 experiments (±s.d.).

[2] = tested on: NIH 3T3 cells transfected with oncogenic Dbl; test: Dbl-induced cellular transformation (focus-forming assays, growth in low serum, soft agar); assay type: cell-based
Experimental: FIGS. 1A-E illustrate that the small molecule 968 inhibiting cellular transformation. […] Cells were fixed and stained with crystal violet for counting of foci. Right: 968 was serially diluted (10, 5, 2.5, and 1.25 μM) and evaluated for its ability to inhibit focus formation. […] After 6 days, the cells are counted. 100% represents the number of Dbl-transformed cells counted in the absence of 968 (27.5×10^4 cells). Data represent the average of 3 experiments (±s.d.). […] At the indicated times, the cells are counted. Data represent the average of 3 experiments (±s.d.).
FIGS. 2A-G illustrate effects of 968 on the transforming activity of constitutively active Rho GTPases and human breast cancer cells. […] Cells are scored after 14 days and plotted as the percentage of the total number of colonies greater than […] in diameter. Data represent the average of 3 experiments (±s.d.). […] Data represent the average of 3 experiments (±s.d.). […] Data represent the average of 3 experiments (±s.d.). […] After 24 hours at 37° C. the migratory cells are fixed, stained with GIEMSA, and counted. Data represent the average of 3 experiments (±s.d.). […] Data represent the average of 3 experiments (±s.d.). […] Data represent the average of 3 experiments (±s.d.). […] Data represent the average of 3 experiments (±s.d.).
FIGS. 5A-C illustrate comparative abilities of 968 and other benzo[a]phenanthrldinones to inhibit the transforming activity of oncogenic Dbl and H-Ras. […] Histograms show the relative levels of Dbl-induced focus formation for the different treatments, compared to Dbl-induced focus formation measured in the presence of DMSO (i.e. solvent control). Data represent the average of 3 experiments (mean±s.d.). […] Histograms show the relative levels of Ras(G12V)-induced focus formation measured for the different treatments, compared to Ras(G12V)-induced focus formation measured in the presence of DMSO (solvent control). Data represent the average of 3 experiments (mean±s.d.). FIG. 5C NIH 3T3 cells stably expressing H-Ras(G12V) that are cultured in DMEM supplemented with 1% calf serum, with the indicated amounts of 968. After 6 days, cells are trypsinized and counted. 100% represents the number of cells counted in the absence of 968, i.e. 26×10^4 cells. Data represent the average of 3 experiments (mean±s.d.).

[3] = tested on: GA activity in MDA-MB231 cells; test: GA activity in mitochondrial fractions; assay type: cell-based, human; details: 10 μM, phosphate-independent
Experimental: (§2) 100%=620 moles of glutamine hydrolyzed per minute per mole of enzyme. Data represent the average of 3 experiments (±s.d.). […] Following precipitation of the beads and re-suspension, the samples are analyzed by Western blotting with anti-V5 antibody. […] Data represent the average of 3 experiments (±s.d.). […] Data represent the average of 3 experiments (±s.d.). […] Data represent the average of 3 experiments (±s.d.). FIG. 3E NIH 3T3 cells transiently expressing Dbl are assayed for focus formation in the presence of 10 μM 968 alone or together with […] dimethyl α-ketoglutarate. […] 100%=680 nM glutamine hydrolyzed per minute per 10^5 cells. Data are the average of 3 experiments (=s.d.). […] 100%=750 nM glutamine hydrolyzed per minute per 10^5 cells. Data represent the average of 3 experiments (±s.d.).
(§3) FIGS. 11A-E illustrate the effects of different treatments on GA activity. […] The addition of Pi stimulated the GA activity in control 3T3 cells, Dbl-expressing cells, and Cdc42(F28L)-expressing cells by ˜6-fold, 2-fold, and 3-fold, respectively. 100% represents the Pi-stimulated activity measured for Dbl-transformed cells that are not treated with 968. […] The data are plotted as the percentage of GA activity measured for untreated SKBR3 cells and represent the average of 2 experiments. […] 100% represents the P1-stimulated activity measured for untreateDbl-transformed cells. […]

[4] = tested on: GA activity in SKBR3 cells; test: GA activity in mitochondrial fractions; assay type: cell-based, human; details: 10 μM, phosphate-independent
Experimental: as §2, §1
as §3, with “968. Data is the average of 3 experiments (±s.d.). […] The addition of Pi stimulated the GA activity of HMECs, MDA-MB231 cells, and SKBR3 cells by ˜5-fold, 2-fold, and 1.4-fold, respectively.” for “968.”

CN(C)c1ccc(C2Nc3ccc4ccccc4c3C3=C2C(=O)CC(C)(C)C3)cc1Br (stereo not drawn) [Compound 968, 5-[3-bromo-4-(dimethylamino)phenyl]-2,2-dimethyl-2,3,5,6-tetrahydrobenzo[a]]
focus-forming activity [1]: blocked | Dbl-induced colony formation in soft agar ([2]; 10 μM): blocked | reversal of 968-inhibition by cell-permeable analog of α-ketoglutarate ([2]; focus-formation, 10 μM 968 with 7 μM dimethyl α-ketoglutarate): circumvented | concentration at which active in blocking Dbl-induced transformation ([2]; focus-forming assays or growth in low serum): 1 to 10 µM | basal GA activity [3]: sensitive | basal GA activity [4]: sensitive
